The structures appear in SMILES notation. Where “and” joins values, the source holds several entries; their conditions need not be identical. Identical values can stand only once.

Series [1] is described as follows: DPPH radical-scavenging assay. As to conditions: DPPH 0.15 mM in MeOH, 30-min incubation in the dark at rt, absorbance 517 nm. The procedure:
The anti-oxidative activity of compounds was also evaluated by 2,2-diphenyl-1-picrylhydrazyl (DPPH) radical-scavenging assay ([Wang et al., 2007]). The experiment was divided into the following five groups, blank (methanol, MeOH), sample (mix compound and DPPH solution), background (pure compound solution), negative (pure DPPH solution), and positive [mix vitamin C (VC) and DPPH solution] controls. DPPH (0.15 mM), compounds (1–100 μM), and VC (1–100 μM) that was regarded as a compound sample in the following procedures all were dissolved in MeOH. Each 160 μL of MeOH was placed in negative control and blank groups, while each 160 μL of testing compounds or VC was placed in sample and background groups. Then, MeOH (each 40 μL) was, respectively, added to blank and background groups, while 40 μL of DPPH was, respectively, added to negative, positive, and sample controls. After 30-min incubation in the dark at rt, the decrease in DPPH radical concentration was monitored by measuring the absorbance at λ 517 nm with a microplate reader (Multiskan Spectrum, Thermo Scientific Varioskan LUX). The DPPH radical-scavenging rate was calculated as:
Scavenging rate (%)=[(Anegative-Ablank)-(Asample-Abackground)]/(Anegative-Ablank)×100%.

Series [2] is described as follows: Oxygen radical absorbance capacity (ORAC) assay. As to conditions: trolox equivalents; tested at 6.25 μM (compounds 4–7), 12.5 μM (1–3, 8–16), 25.0 μM (17–25); PBS pH 7.4, 37°C. On the procedure: The anti-oxidative activity of compounds was evaluated by ORAC assay ([Huang et al., 2002]) that was carried out mainly by using 2,2′-azobis(2-amidinopropane) dihydrochloride (AAPH, 153.0 μM), fluorescein (FL, 81.6 nM), testing compounds, and trolox as a positive control, all of which were dissolved in phosphate buffer solution (PBS, 75 mM, pH 7.4). The concentrations were 6.25 μM for compounds 4–7 and trolox, 12.5 μM for compounds 1–3, 8–16 and trolox, and 25.0 μM for compounds 17–25 and trolox, respectively (Supplementary Figure 36). In short, each 25 μL of testing compounds, blank (PBS), negative (PBS) and trolox, and 150 μL of FL were added in each well and incubated at 37°C for 10 min. Each 25 μL of AAPH was then added to the testing compounds, blank and trolox groups, and 25 μL of PBS was added to the negative group. Fluorescence intensity of each well was measured one time every 1 min for 90 cycles using a Fluoroskan Ascent FL plate-reader (Thermo Scientific Varioskan LUX) at excitation of λ 485 nm and emission of λ 530 nm. The relative fluorescence intensity f was equaled to the ratio of the absolute fluorescence reading to the initial fluorescence reading, and the net area under curve (AUC) was obtained by subtracting the AUC of the blank from that of the compound. The AUC was calculated as 0.5 + f1 +… fi +… + f89 + 0.5 × f90, in which fi means the ratio of fluorescence reading at time i to the initial fluorescence reading. The final ORAC values were calculated as micromole of trolox equivalents per micromole of the compound (μmole TE/μmole) by using a regression equation between the trolox concentration and the net area under the FL decay curve. That is, the relative ORAC value = (AUCcompound – AUCblank)/(AUCtrolox – AUCblank).

Series [3] has as its target α-glucosidase from Saccharomyces cerevisiae (Saccharomyces cerevisiae, UniProt P53341). Briefly: biochemical.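 Further: 15 min preincubation at 37 °C, then 30 min with PNPG substrate at 37 °C, inhibition computed from absorbance versus drug-free blank.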
Method: After incubation for 15 min at 37°C, 20 μL of PNPG solution was added to each well of testing groups and further incubated at 37°C for 30 min. Finally, 80 μL of Na2CO3 solution was added to each well to stop the reaction and the absorbance was measured by a microplate reader (Multiskan Spectrum, Thermo Scientific Varioskan LUX) at λ 405 nm.
The nature of series [4]: Cytotoxic effects on caco-2 cells by CTG assay. As to conditions: human, 72 h incubation, read-out: inhibitory rate (cytotoxicity to caco-2 cells). The format is cell-based. On the procedure: The cytotoxic effects on the coca-2 cells were evaluated by the CTG assay ([Elisia and Kitts, 2008]; [Wang et al., 2019]). Briefly, coca-2 cells were seeded in 96-well plates at a density of 2 × 10^3 cells/well and treated with the final concentration of 1.0 μM of the compounds. After 72 h incubation, 100 μL of CTG solution (Promega) was added into each well. The luminescence value was tested by using a microplate reader (BioTek Synergy H1) after staying at rt for 10 min.

Chain of α-glucosidase from Saccharomyces cerevisiae (P53341 whole entry): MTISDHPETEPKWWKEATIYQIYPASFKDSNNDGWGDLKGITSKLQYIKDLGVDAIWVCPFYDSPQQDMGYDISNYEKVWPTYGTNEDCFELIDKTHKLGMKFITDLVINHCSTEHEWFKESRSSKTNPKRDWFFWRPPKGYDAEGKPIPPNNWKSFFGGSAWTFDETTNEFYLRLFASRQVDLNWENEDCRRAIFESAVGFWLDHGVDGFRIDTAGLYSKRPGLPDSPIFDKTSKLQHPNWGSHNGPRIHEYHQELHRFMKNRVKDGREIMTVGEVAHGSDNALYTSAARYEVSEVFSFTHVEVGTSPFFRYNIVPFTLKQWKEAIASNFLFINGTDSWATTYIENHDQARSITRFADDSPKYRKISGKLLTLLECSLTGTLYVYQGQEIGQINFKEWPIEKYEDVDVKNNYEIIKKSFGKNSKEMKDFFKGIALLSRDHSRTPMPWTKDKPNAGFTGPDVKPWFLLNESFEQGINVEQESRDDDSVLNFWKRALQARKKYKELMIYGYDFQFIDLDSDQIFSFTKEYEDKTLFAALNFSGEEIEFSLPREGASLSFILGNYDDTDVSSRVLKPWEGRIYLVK

As a reminder, the IC50 is the point on the concentration scale where inhibition reaches its midpoint. Higher therefore signals lower potency. Take `COc1cc(-c2c(OC)cc(-c3ccccc3)c(OC)c2O)ccc1OCC=C(C)C` [Compound 1, 3-O-methyl-4″-deoxyterprenin]: the half-inhibitory concentration (IC50) in series [1] was above 100 µM; in series [3] it was above 500 µM. The “ORAC (μMole TE/μMole)” value in series [2] is 1.0 ± 0.04 μMole TE/μMole.

As for `COc1cc(-c2ccc(O)cc2)c(OC)c(O)c1-c1ccccc1` [Compound 2, 4-deoxyterphenyllin], the IC50 is above 100 µM in series [1] and 239 ± 5.9 µM in series [3]. The “ORAC (μMole TE/μMole)” value in series [2] is 1.2 ± 0.09 μMole TE/μMole.

On to `COc1cc(-c2ccccc2)c(OC)c(OC)c1-c1ccc(O)cc1` [Compound 3, 4″-deoxy-2′-methoxyterphenyllin], for which the half-maximal inhibitory concentration (IC50) in series [1] is above 100 µM; in series [3], above 500 µM. Also, the “ORAC (μMole TE/μMole)” value in series [2] came to 2.1 ± 0.5 μMole TE/μMole.

Consider `COc1cc(-c2ccc(O)cc2)c(O)c(O)c1-c1ccc(O)cc1` [Compound 4, 5′-methoxy-[1,1′:4′,1″-terphenyl]-2′,3′,4,4″-tetraol], for which the IC50 was 1.7 ± 0.02 µM in series [1] and 5.9 ± 0.6 µM in series [3]. For the same compound, the “ORAC (μMole TE/μMole)” value in series [2] is 6.8 μMole TE/μMole and 6.8 ± 0.05 μMole TE/μMole.

Consider `COc1cc(-c2ccc(O)cc2)c(OC)c(O)c1-c1ccc(O)cc1` [Compound 5, terphenyllin], for which the IC50 in series [1] amounted to 10.9 ± 0.3 µM; in series [3], 2.8 ± 0.2 µM. Besides, the “ORAC (μMole TE/μMole)” value in series [2] is 6.0 μMole TE/μMole and 6.0 ± 0.09 μMole TE/μMole. The inhibition at 72 h, 1 µM in series [4] stood at 0.4%.

`COc1cc(-c2ccc(O)cc2)c(OC)c(O)c1-c1ccc(O)c(O)c1` [Compound 6, 3-hydroxyterphyllin]: the concentration for half-maximal inhibition (IC50) in series [1] amounted to 1.4 ± 0.01 µM; in series [3], 10.9 ± 1.3 µM. Besides, in series [2], the “ORAC (μMole TE/μMole)” value is 5.7 μMole TE/μMole and 5.7 ± 0.3 μMole TE/μMole. Moreover, in series [4], the inhibition at 72 h, 1 µM worked out at 0.2%.

Turning to `COc1cc(-c2ccc(O)c(O)c2)c(OC)c(O)c1-c1ccc(O)c(O)c1` [Compound 7, 3,3″-dihydroxyterphyllin], the 50% inhibitory concentration (IC50) was 1.1 ± 0.03 µM in series [1] and 18.3 ± 0.9 µM in series [3]. In series [2], the “ORAC (μMole TE/μMole)” value was 4.5 μMole TE/μMole and 4.5 ± 0.4 μMole TE/μMole. In addition, the inhibition at 72 h, 1 µM in series [4] is 0.5%.

Consider `COc1cc(-c2ccccc2)c(OC)c(O)c1-c1ccc(O)cc1` [Compound 8, 4″-deoxyterphenyllin], for which the results for the IC50 in series [1] and in series [3] were 57.8 ± 0.8 µM and 130 ± 3.5 µM, respectively. In series [2], the “ORAC (μMole TE/μMole)” value was 0.5 ± 0.01 μMole TE/μMole.

Consider `COc1cc(-c2ccccc2)c(OC)c(O)c1-c1ccc(O)c(O)c1` [Compound 9, 4″-deoxy-3-hydroxyterphenyllin], for which the 50% inhibitory concentration (IC50) in series [1] was 1.9 ± 0.04 µM; in series [3], 464 ± 23.6 µM. Besides, the “ORAC (μMole TE/μMole)” value in series [2] is 0.5 ± 0.06 μMole TE/μMole.

As to `COc1cc(-c2ccc(O)cc2)c(OC)c(OC)c1-c1ccc(O)cc1` [Compound 10, 3′-O-methylterphenyllin], the figures for the concentration for half-maximal inhibition (IC50) in series [1] and in series [3] were above 100 µM and above 500 µM, respectively. The “ORAC (μMole TE/μMole)” value in series [2] was 0.5 ± 0.03 μMole TE/μMole.

Turning to `COc1cc(-c2ccccc2)c(OC)c(O)c1-c1ccc(O)c(CC=C(C)C)c1` [Compound 11, 4″-deoxyprenylterphenyllin], the half-inhibitory concentration (IC50) amounted to 1.6 ± 0.01 µM in series [1] and 34.4 ± 1.1 µM in series [3]. Besides, the “ORAC (μMole TE/μMole)” value in series [2] was 1.2 ± 0.5 μMole TE/μMole.

In the case of `COc1cc(-c2ccc(O)c(CC=C(C)C)c2)c(OC)c(O)c1-c1ccc(O)c(O)c1` [Compound 12, prenylterphenyllin A], the IC50 in series [1] stood at 1.6 ± 0.02 µM; in series [3], 64.4 ± 1.2 µM. Moreover, in series [2], the “ORAC (μMole TE/μMole)” value is reported as 1.4 ± 0.01 μMole TE/μMole.

In the case of `COc1cc(-c2c(OC)cc(-c3ccc(O)cc3)c(OC)c2O)ccc1OCC=C(C)C` [Compound 13, 3-methoxyterprenin], the 50% inhibitory concentration (IC50) in series [1] was above 100 µM; in series [3], 152 ± 9.6 µM. Moreover, the “ORAC (μMole TE/μMole)” value in series [2] is listed as 0.4 ± 0.07 μMole TE/μMole.

As to `COc1c(-c2ccccc2)cc(OC)c2c1oc1cc(O)c(O)cc12` [Compound 14, 4″-deoxycandidusin A], the half-inhibitory concentration (IC50) in series [1] was found to be 4 ± 0.2 µM; in series [3], 128 ± 2.3 µM. Further, in series [2], the “ORAC (μMole TE/μMole)” value stood at 0.4 ± 0.06 μMole TE/μMole.

As to `COc1c(-c2ccc(O)cc2)cc(OC)c2c1oc1cc(O)c(O)cc12` [Compound 15, candidusin A], the figures for the 50% inhibitory concentration (IC50) in series [1] and in series [3] were 3.6 ± 0.06 µM and 13.1 ± 0.2 µM, respectively. In series [2], the “ORAC (μMole TE/μMole)” value is reported as 2.1 ± 0.06 μMole TE/μMole. The inhibition at 72 h, 1 µM in series [4] is 20.5%.

`COc1c(-c2ccc(O)c(O)c2)cc(OC)c2c1oc1cc(O)c(O)cc12` [Compound 16, candidusin B]: the IC50 in series [1] is 3.2 ± 0.1 µM; in series [3], 7.9 ± 0.3 µM. The “ORAC (μMole TE/μMole)” value in series [2] is on record as 2.0 ± 0.06 μMole TE/μMole. The inhibition at 72 h, 1 µM in series [4] was found to be 2.7%.

For `Oc1ccc(-c2cc(O)c(-c3ccc(O)cc3)c(O)c2O)cc1` [Compound 17], the IC50 in series [1] worked out at 5.3 ± 0.06 µM; in series [3] it was 25.1 ± 0.7 µM. The “ORAC (μMole TE/μMole)” value in series [2] was 4.8 μMole TE/μMole and 4.8 ± 0.3 μMole TE/μMole.

In the case of `Oc1ccc(-c2cc(O)c(-c3ccc(O)c(O)c3)c(O)c2O)cc1` [Compound 18], the IC50 was determined as 3.7 ± 0.07 µM in series [1] and 25 ± 0.8 µM in series [3]. In addition, in series [2], the “ORAC (μMole TE/μMole)” value came out at 3.7 ± 0.1 μMole TE/μMole.

With `Oc1ccc(-c2cc(O)c(-c3ccc(O)c(O)c3)c(O)c2O)cc1O` [Compound 19], the half-inhibitory concentration (IC50) turned out to be 1.8 ± 0.04 µM in series [1] and 19.4 ± 0.1 µM in series [3]. In series [2], the “ORAC (μMole TE/μMole)” value turned out to be 2.6 ± 0.1 μMole TE/μMole.

As for `O=C1C=C(c2ccc(O)cc2)C(=O)C(O)=C1c1ccc(O)cc1` [Compound 20], the 50% inhibitory concentration (IC50) in series [1] was found to be 5.9 ± 0.08 µM; in series [3], 8.9 ± 0.4 µM. The “ORAC (μMole TE/μMole)” value in series [2] was 6.1 μMole TE/μMole and 6.1 ± 0.2 μMole TE/μMole. In addition, the inhibition at 72 h, 1 µM in series [4] is 0.4%.

Consider `O=C1C=C(c2ccc(O)cc2)C(=O)C(O)=C1c1ccc(O)c(O)c1` [Compound 21], for which the half-inhibitory concentration (IC50) in series [1] worked out at 1.6 ± 0.04 µM; in series [3], 4 ± 0.08 µM. For the same compound, in series [2], the “ORAC (μMole TE/μMole)” value is on record as 3.9 ± 0.1 μMole TE/μMole. Also, the inhibition at 72 h, 1 µM in series [4] amounted to 1.2%.

Regarding `O=C1C=C(c2ccc(O)c(O)c2)C(=O)C(O)=C1c1ccc(O)c(O)c1` [Compound 22], the concentration for half-maximal inhibition (IC50) turned out to be 1.7 ± 0.02 µM in series [1] and 10.1 ± 0.1 µM in series [3]. Besides, the “ORAC (μMole TE/μMole)” value in series [2] worked out at 2.8 ± 0.3 μMole TE/μMole.

Turning to `COc1cc(-c2ccc(OC(C)=O)cc2)c(OC)c(OC(C)=O)c1-c1ccc(OC(C)=O)cc1` [Compound 23], the values for the half-inhibitory concentration (IC50) in series [1] and in series [3] were above 100 µM and above 500 µM, respectively. The “ORAC (μMole TE/μMole)” value in series [2] stood at 0.1 ± 0.01 μMole TE/μMole.

For `COc1cc(-c2ccc(OC(C)=O)cc2)c(OC)c(OC(C)=O)c1-c1ccc(OC(C)=O)c(OC(C)=O)c1` [Compound 24], the IC50 was 37.8 ± 0.1 µM in series [1] and above 500 µM in series [3]. Further, in series [2], the “ORAC (μMole TE/μMole)” value came to 0.8 ± 0.07 μMole TE/μMole.

As to `COc1cc(-c2ccc(OC(C)=O)c(OC(C)=O)c2)c(OC)c(OC(C)=O)c1-c1ccc(OC(C)=O)c(OC(C)=O)c1` [Compound 25], the figures for the 50% inhibitory concentration (IC50) in series [1] and in series [3] were 11 ± 0.1 µM and above 500 µM, respectively. Further, in series [2], the “ORAC (μMole TE/μMole)” value came to 1.7 ± 0.07 μMole TE/μMole.

As to `O=C1O[C@H]([C@@H](O)CO)C(O)=C1O` [VC, vitamin C, reference compound], the 50% inhibitory concentration (IC50) in series [1] amounted to 2.8 ± 0.03 µM.
